The values below are quoted from earlier work in US9376364B2, “Acid/salt separation” (PURAC BIOCHEM B.V., priority 2011, dated 2016).

For the series the following is noted: at 20 Celsius.

With `[Cl-].[Cl-].[Mg+2]` [MgCl2, magnesium chloride], the “saturation point of MgCl2 in water” value is on record as 55 g/100 g water.
